{"source": "patent US4937232A", "about": "“Inhibition of protein kinase C by long-chain bases” (priority 1988, dated 1990)", "key": {"human neutrophils [1]": {"system": "human neutrophils", "conditions": "cited from earlier work"}, "human neutrophils [2]": {"system": "human neutrophils", "experiment": "[32P]-phosphate incorporation into TCA-precipitable material of neutrophils", "type": "cell-based", "conditions": "PMA (1 μM)", "description": "Neutrophils (1.4×10^8 cells) were preincubated in with 0.5 mCi Na2 H^32 PO4 in buffer containing […] NaCl, 5.56 mM glucose, 10 mM Hepes, and 0.33 mM CaCl2 for a total of 1 hr at 37° C. in a shaking waterbath. Excess unbound counts were removed by centrifugation and resuspension, repeated five times. The cells were then divided into 4 treatment groups (see RESULTS below) containing approximately 3.5×10^7 cells each. All groups were incubated at 37° C. in a shaking waterbath for the same total time. Some samples were incubated 10 min. with sphinganine (40 μM) prior to addition of 1 μM PMA (final concentration), with which they were incubated for an additional 15 min. The reaction was stopped by addition of an equal volume of boiling SDS dissociation buffer (9% SDS, 1% mercaptoethanol, 15% glycerol, 30 mM Tris, pH 7.8). The samples were run on a 12% SDS-polyacrylamide gel using the method of Rudolph and Krueger (Adv. Cyclic Nucleotide Res. 101, 107-133, 1979). The gels were dried using a Bio-Rad model 2400 Gel Slab Dryer. Autoradiography was performed on the dried gels using Kodak X-omat X-ray film and Dupont Cronex intensifying screens. The gels were exposed for 12 hrs at -70° C.\nAlternatively, neutrophils were preincubated as described above using 0.1 mCi of ^32 P labeled phosphate. The cells were broken by 5 min. of sonication using an Ultramet III waterbath sonicator, and 5% (final concentration) trichloroacetic acid was added to each sample. […] The precipitate was filtered and washed extensively using an Amicon filtration system and counted using a Beckman LS7000 scintillation counter."}, "HL-60 cells [3]": {"system": "HL-60 cells", "experiment": "Acid phosphatase activities of suspended and attached HL-60 cells", "type": "cell-based, human", "conditions": "8 nM PMA, 0 μM sphinganine", "description": "(§1) Cells were centrifuged at 600 g for 3 min, and added at 1×10^5 cells per well in 12-well culture dishes. Medium, PMA, and long-chain bases (prepared as the 1:1 molar complex with fatty acid-free bovine serum albumin) at the indicated concentrations were added for a total volume of 2.0 ml. After the desired times, the cells in suspension were counted and checked for viability (trypan blue exclusion) with a hemacytometer. The attached cells were quantitated by measuring DNA content according to the method of West et al (Anal. Biochem., 147, 289-295, 1985) and by assaying for acid phosphatase according to the method of Schnyder (J. Exp. Med., 148, 434-445, 1978)."}, "HL-60 cells [4]": {"system": "HL-60 cells", "experiment": "Morphology and marker enzymes (ANA esterase, acid phosphatase) of HL-60 cells on day 3", "type": "cell-based, human", "conditions": "8 nM PMA, 0 μM sphinganine, 3 days", "from_the_text": "Expression of most other signs of HL-60 cell differentiation requires longer time periods after treatment with PMA. For these experiments, the cells were examined on day 3 for adherence and acid phosphatase activity (Table IV) and morphology and the marker enzymes alpha-naptholacetate (ANA) esterase and acid phosphatase (Table V)."}, "human neutrophils [5]": {"system": "human neutrophils", "experiment": "Oxygen consumption (oxidative burst) of human neutrophils", "type": "cell-based", "conditions": "for IC50: oxidative burst, PMA activation, read-out: Concentration required for 50% inhibition", "from_the_text": "Human neutrophils were obtained by continuous flow leukapheresis from normal adults. Residual erythrocytes were removed by hypotonic lysis with a resulting purity of >95% neutrophils. Alternatively peripheral blood was obtained by phlebotomy and neutrophils were isolated by HESPAN (6% Hetastarch, 0.9% NaCl) sedimentaion of erythrocytes, centrifugation through lymphocyte separation medium (9.4% sodium diatrizoate, 6.2% Ficoll), and hypotonic lysis of residual erythrocytes. Isolated cells were resuspended in phosphate buffered saline (PBS)-glucose, containing 0.6 mM CaCl2, 2.6 mM KCl, 1.5 mM KH2 PO4, 0.5 mM MgCl2, 136 mM NaCl, 8 mM Na2 HPO4, 5.5 mM glucose.\nOxygen consumption was measured using a Clark-type electrode with YSI model 53 oxygen monitor. Assays were conducted at 37° C. with 6.5×10^6 cells per ml with a total volume of either 2.5 ml or 4 ml. Effectors were injected into the electrode chamber using a Hamilton syringe. Initial slopes after the addition of the stimuli were used for rate calculations. For activators with a lag prior to the onset of the oxidative burst, maximal rates following the lag were used."}, "[6]": {"experiment": "HL-60 cell growth and viability", "type": "cell-based, human", "conditions": "human, hl-60 cells, 8 nM PMA, 24 h", "description": "(§2) The HL-60 cells (obtained from the American Type Culture Collection, ATCC CCL240) were grown at 37° as a suspension culture in 175 cm^2 Nunc tissue culture flasks (Vangard International, Neptune, N.J.). The cells were subcultured at a density of 0.25×10^6 cells/ml and used between passage numbers 30 and 40.\nas §1"}, "HL-60 cells [7]": {"system": "HL-60 cells", "experiment": "HL-60 cell growth and viability", "type": "cell-based, human", "conditions": "Homo sapiens, HL-60, 24 h, read-out: inhibition of growth of HL-60 cells", "description": "as §2, §1"}, "HL-60 cells [8]": {"system": "HL-60 cells", "experiment": "PMA-induced adherence (attachment) of HL-60 cells", "type": "cell-based, human", "description": "as §1"}, "[9]": {"system": "phorbol ester binding site (protein kinase C) of neutrophils", "experiment": "Cellular [3H]-phorbol dibutyrate binding in neutrophils", "set-up": "species or system human", "conditions": "50 μM; 15 min", "description": "Neutrophils (1×10^8 cells/ml) were preincubated with the indicated concentration of sphinganine, palmitic acid, or ceramide for five minutes prior to the addition of 50 nM (final concentration) of [^3 H]-phorbol dibutyrate (specific activity of 8.3 Ci/mMole). The cells were incubated an additional 15 min. in a shaking waterbath at 37° C. The incubation mixtures were filtered using an Amicon filtration manifold model VFM-III and washed 5 times with 5 mls of ice-cold PBS-glucose. The filters were counted using a Beckman LS7000 scintillation counter."}, "protein kinase C": {"system": "protein kinase C", "experiment": "Triton X-100 mixed micellar assay for protein kinase C activity", "type": "biochemical, rat", "conditions": "mixed micellar assay", "description": "Protein kinase C was partially purified from rat brain as described by Hanrun et al (J. Biol. Chem., 260, 10043, 1985), which is hereby incorporated by reference.\nProtein kinase C was assayed with Triton X-100 mixed micelles as described by Hanrun et al, (ibid.), Sphingosine was dried down with the lipid cofactors."}}, "note": "“And” between values parts separate entries of the source, which are not always exact repeats. Equal values may be shown once. “Also recorded” adds a separate entry of the source. Read-outs that look alike come from different tables or passages of the source.", "data": [{"compound": "CC1CNCCN1S(=O)(=O)c1cccc2cnccc12", "note": "(stereo not shown) [H-7]", "values": [{"measurement": "inhibition of the respiratory burst in human neutrophils", "setting": "human neutrophils [1]", "result": "incapable of inhibiting"}]}, {"compound": "NCCNS(=O)(=O)c1cccc2cnccc12", "note": "[H-9]", "values": [{"measurement": "inhibition of the respiratory burst in human neutrophils", "setting": "human neutrophils [1]", "result": "incapable of inhibiting"}]}, {"compound": "CCCCCCCCCCCCCC(=O)O[C@@H]1[C@@H](C)[C@@]2(O)[C@@H](C=C(CO)C[C@]3(O)C(=O)C(C)=C[C@@H]23)[C@@H]2C(C)(C)[C@]12OC(C)=O", "note": "[PMA, Phorbol 12-myristate 13-acetate, reference compound]", "values": [{"measurement": "[32P]-phosphate incorporation into TCA-precipitable material", "setting": "human neutrophils [2]", "result": 4912, "unit": "COUNTS PER MINUTE"}, {"measurement": "Acid phosphatase activity, Adherent", "setting": "HL-60 cells [3]; 24 h", "result": "0.52 ± 0.01", "unit": "nmol/h/dish"}, {"measurement": "Acid phosphatase activity, Suspended", "setting": "HL-60 cells [3]; 24 h", "result": "0.11 ± 0.05", "unit": "nmol/h/dish"}, {"measurement": "Adherence (% of total)", "setting": "HL-60 cells [3]; 24 h", "result": "83 % of total"}, {"measurement": "Acid phosphatase activity, Adherent", "setting": "HL-60 cells [3]; 72 h", "result": "2.20 ± 0.09", "unit": "nmol/h/dish"}, {"measurement": "Acid phosphatase activity, Adherent (%)", "setting": "HL-60 cells [3]; 72 h", "result": 98, "unit": "%"}, {"measurement": "Acid phosphatase activity, Suspended", "setting": "HL-60 cells [3]; 72 h", "result": "0.05 ± 0.01", "unit": "nmol/h/dish"}, {"measurement": "Acid phosphatase", "setting": "HL-60 cells [4]; adherent cells", "result": 0.60, "unit": "nmol/h/105 cells"}, {"measurement": "Acid phosphatase", "setting": "HL-60 cells [4]; suspended cells", "result": 0.30, "unit": "nmol/h/105 cells"}, {"measurement": "RATE of oxygen consumption, NO SPHINGANINE", "setting": "human neutrophils [5]; activator alone", "result": "4.3 nmols O2 consumed/min/10^6 cells"}, {"measurement": "viability at 24 h, 0.008 µM", "setting": "[6]; 0 μM sphinganine, read-out: Percent viability of suspended cells", "result": 60, "unit": "%"}, {"measurement": "viability at 24 h, 0.008 µM", "setting": "[6]; read-out: % Viability", "result": 80, "unit": "%"}, {"measurement": "inhibition at 0.008 µM", "setting": "HL-60 cells [7]", "result": 70, "unit": "%"}, {"measurement": "number of adherent cells", "setting": "HL-60 cells [8]; 8 nM PMA alone, 24 h", "result": "0.76 ×10^5"}, {"measurement": "Adherent cells (%)", "setting": "HL-60 cells [8]; 8 nM PMA, 0 μM sphinganine, 72 h", "result": 96, "unit": "%"}, {"measurement": "% Adherence", "setting": "HL-60 cells [8]; 8 nM PMA, 24 h", "result": "61% and 61.3 ± 1.0%"}]}, {"compound": "CCCCCCCCCCCCCCCC(=O)O", "note": "[Palmitic acid, reference compound]", "values": [{"measurement": "IC50", "setting": "human neutrophils [5]; Homo sapiens, Neutrophil", "result": "> 100", "unit": "µM"}, {"measurement": "displacement of [3H]-phorbol dibutyrate", "setting": "[9]", "result": 3, "unit": "%"}]}, {"compound": "Ceramide", "values": [{"measurement": "inhibition of protein kinase C (specificity)", "setting": "protein kinase C", "result": "did not activate or inhibit"}, {"measurement": "inhibition of protein kinase C (specificity)", "setting": "protein kinase C; listed as ceramide", "result": "without effect; also recorded: not to be inhibitors"}, {"measurement": "IC50", "setting": "human neutrophils [5]", "result": "> 100", "unit": "µM"}, {"measurement": "displacement of [3H]-phorbol dibutyrate", "setting": "[9]", "result": 18, "unit": "%"}, {"measurement": "inhibition of PMA-induced attachment", "setting": "HL-60 cells [8]; 8 nM PMA", "result": "not inhibitory"}]}]}
